Test results taken from US8663607B2, “Ferrate(VI)-containing compositions and methods of using ferrate(VI)” (Battelle Memorial Institute, priority 2007, dated 2014).

Key:
[1] = Reactivity of ferrate(VI) in nonpolar media; type: physicochemical; conditions: such as oils, solvents, waxes
[2] = Stain removal from calcium deficient hydroxyapatite disks (human tooth model), tea stain; conditions: disk T: 1 mL of 3% hydrogen peroxide + 0.5 g sodium bicarbonate, applied twice, 5 minutes, water soak 45 minutes
Experimental: Tea staining Solution: 200 mL of high-purity deionized (HPDI) water was heated to boiling in a 500-mL beaker. The beaker was removed from heat and 4 Lipton™ tea bags were added. The tea bags were allowed to soak for 5 minutes. The tea bags were pressed with a spatμLa upon removal to remove liquid.
Tea staining Procedure: A calcium-deficient hydroxyapatite (HAP) disk (Clarkson Chromatography Products) was placed into a 50-mL centrifuge tube with 10 mL of tea solution. The centrifuge tube was gently shaken by hand for 15 minutes. The tea solution was decanted and replaced with 10 mL of HPDI water and vortexed for 30 seconds. The water was decanted and replaced with 10 additional mL of HPDI water and vortexed for 30 seconds. The disk was removed with forceps and patted dry with a tissue. The disk was allowed to air dry at room temperature for at least one hour.
Oxidation resistant chelating buffer: 0.25M 1-Hydroxyethylidenediphosphonic acid (etridonic acid) (Dequest® 2010, Thermphos) (HEPA) was pH adjusted by microtitration with 10N NaOH. 1.28 g of 1-Hydroxyethylidenediphosphonic acid was to a 25-mL volumetric flask and brought to volume with HPDI water. The solution was transferred to a 50-mL beaker with a stir bar and pH adjusted using 10.04N NaOH, monitored with a calibrated pH meter. Aliquat 336® (Cognis) (also suitable is Aliquat 134®) (N-methyl-tri-(n-octyl)ammonium chloride), (N-methyl TOA) or “HEPA” chelating pH Buffer: 2.5-μL of N-methyl TOA was added to 5 mL of pH 7 HEPA buffer and sonicated for 1 minute. pH 7 Sodium Dodecyl Sulfate (SDS)/HEPA Buffer: 10 mg of SDS was added to 5 mL of pH 7 HEPA buffer and sonicated for 1 minute. pH 8 SDS/HEPA Buffer: 10 mg of SDS was added to 5 mL of pH 8 HEPA buffer and sonicated for 1 minute.
• A. A tea stained disk was placed into the bowl of the bowl of a watch glass and 100 μL of pH 7 HEPA buffer was pipetted onto the disk surface. 3.7 mg of potassium ferrate(VI) was added to the disk surface and mixed gently. […] The disk was rinsed at 10 minutes with HPDI water. […] 1 mL of pH 7 HEPA buffer was added followed by 9 mL of HPDI water. 9.7 mg of potassium ferrate(VI) was added. The tube was gently hand shaken for 10 minutes. The disk was removed and rinsed with HPDI water. […] 10 mg of potassium ferrate(VI) was added to 1 mL of pH 7 HEPA buffer in a 50 mL centrifuge tube. 9 mL HPDI water was added, and the solution was shaken for a few seconds followed by the addition of a tea stained HAP disk. The disk was removed at 10 minutes and rinsed with HPDI water. […] 1.3 mg of potassium ferrate(VI) added and mixed into the solution.

Molecule | reactivity in nonpolar media [1] | L* (lightness/darkness) [2] | a* (blue/red) [2] | appearance of disk after treatment [2] | b* (yellow/green) [2] | reflectance of visible light at 450 nm [2] | reflectance of visible light at 750 nm [2] | ΔE (versus tea stain) [2]
ferrate(VI) | unreactive |  |  |  |  |  |  | 
OO [hydrogen peroxide, reference compound] |  | 96.9 | 0.4 | Much of the color was removed | 0.3 | 89.892 | 94.030 | 13.44
